Experimental findings from patent US12552758B2, “Inhibitors of MLH1 and/or PMS2 for cancer treatment” (NeoPhore Limited, priority 2020, dated 2026) are described below.

SMILES strings stand for the structures.

As usually defined, the IC50 is the concentration that inhibits the measured activity by half.

In experiment [1] the target is recombinant N-terminal MLH1 (residues 15-340) (Homo sapiens (Human), UniProt P40692). Put plainly: Fluorescence polarisation assay for MLH1 (protocol for all Examples except Examples 64, 76, 90 and 95). The class given is binding. The settings on record: FP probe displacement; 100 nM N-terminal MLH1, 5 nM probe compound, read after 15 minutes; all Examples except 64, 76, 90 and 95. As to the method:
Fluorescence Polarisation Assay for MLH1 (Protocol for all Examples Except Examples 64, 76, 90 and 95)
(§1) Test compounds, as 10 mM DMSO stocks, were dispensed into a Black Fluotrac 200 384 well medium binding plate (Greiner Bio-One, item number 781076) using a Labcyte Echo acoustic liquid handler. For single point screening, test compounds were added to wells in columns 1-22 whilst DMSO was added to wells in columns 23 and 24 in order to normalise the plate. For potency determination, serial dilutions of test compounds were added to wells in columns 3-22 and DMSO volume was normalised across the plate.
20 μL assay buffer was added to all wells in columns 1 and 24 (column 24 only for single point screening) using a MultiDrop Combi (ThermoFisher). Plates were centrifuged for 1 minute at 250×g and were incubated at room temperature for 30 minutes prior to the addition of 20 μL of 2×(10 nM) of 5-((5-(4-((2-(2,4-dihydroxy-5-isopropylbenzoyl)isoindolin-5-yl)methyl)piperazin-1-yl)pentyl)carbamoyl)-2-(6-(dimethylamino)-3-(dimethyliminio)-3H-xanthen-9-yl)benzoate (referred to hereinafter as “probe compound”) in assay buffer (prepared from a 100 μM DMSO stock) with a MultiDrop Combi (ThermoFisher). The final concentration of N-terminal MLH1 was 100 nM and the final concentration of probe compound was 5 nM.
Compound plates were centrifuged for 1 minute at 250×g for 1 minute and were incubated at room temperature for 15 minutes before being read on a PheraStar FSX (fitted with 384-well aperture spoon and 540 590 590 FP optic module). The gain and focus were adjusted before each plate was read so that the polarisation of a no enzyme control (column 24) was equal to 35 mP. Data were normalised against the no inhibitor controls (column 23) and no enzyme controls (column 24).
In general terms: Polarisation of emitted light reports the rotation of a fluorescent probe.

The target in experiment [2] is recombinant N-terminal PMS2 (residues 1-365) (Homo sapiens (Human), UniProt P54278). The experiment is described as follows: Fluorescence polarisation assay for PMS2. It is filed as binding. The following applies: FP probe displacement; 10 nM N-terminal PMS2, 5 nM probe compound, read after 1 hour. The procedure: Fluorescence Polarisation Assay for PMS2
recombinant N-terminal PMS2 (residues 1-365), sequence (P54278 1-365): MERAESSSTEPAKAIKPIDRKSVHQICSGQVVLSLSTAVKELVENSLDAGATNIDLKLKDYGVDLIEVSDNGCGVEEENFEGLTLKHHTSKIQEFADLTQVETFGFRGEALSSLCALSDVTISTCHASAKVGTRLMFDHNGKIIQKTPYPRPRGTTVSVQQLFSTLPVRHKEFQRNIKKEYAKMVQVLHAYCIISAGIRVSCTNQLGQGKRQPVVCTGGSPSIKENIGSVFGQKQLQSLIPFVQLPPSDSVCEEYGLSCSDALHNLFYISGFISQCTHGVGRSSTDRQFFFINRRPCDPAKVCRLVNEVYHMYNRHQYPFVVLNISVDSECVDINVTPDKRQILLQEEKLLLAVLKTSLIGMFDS
as §1
20 μL assay buffer was added to all wells in columns 1 and 24 (column 24 only for single point screening) using a MultiDrop Combi (ThermoFisher). Plates were centrifuged for 1 minute at 250×g and were incubated at room temperature for 30 minutes prior to the addition of 20 μL of 2×([…]) of 5-((5-(4-((2-(2,4-dihydroxy-5-isopropylbenzoyl)isoindolin-5-yl)methyl)piperazin-1-yl)pentyl)carbamoyl)-2-(6-(dimethylamino)-3-(dimethyliminio)-3H-xanthen-9-yl)benzoate (referred to hereinafter as “probe compound”) in assay buffer (prepared from a 100 μM DMSO stock) with a MultiDrop Combi (ThermoFisher). The final concentration of N-terminal PMS2 was 10 nM and the final concentration of probe compound was 5 nM.
Compound plates were centrifuged for 1 minute at 250×g for 1 minute and were incubated at room temperature for 1 hour before being read on a PheraStar FSX (fitted with 384-well aperture spoon and 540 590 590 FP optic module). The gain and focus were adjusted before each plate was read so that the polarisation of a no enzyme control (column 24) was equal to 35 mP. Data were normalised against the no inhibitor controls (column 23) and no enzyme controls (column 24).

recombinant N-terminal MLH1 (residues 15-340), sequence (P40692 15-340): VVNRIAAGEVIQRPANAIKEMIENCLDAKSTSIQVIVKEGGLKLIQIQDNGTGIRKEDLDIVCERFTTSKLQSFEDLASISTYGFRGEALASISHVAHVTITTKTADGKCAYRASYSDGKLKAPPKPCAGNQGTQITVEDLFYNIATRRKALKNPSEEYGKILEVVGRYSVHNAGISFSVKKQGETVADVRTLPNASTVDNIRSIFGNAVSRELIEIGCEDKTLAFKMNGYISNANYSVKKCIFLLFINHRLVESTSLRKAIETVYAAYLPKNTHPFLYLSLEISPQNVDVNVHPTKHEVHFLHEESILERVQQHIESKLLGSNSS

Regarding `CC(Oc1cc(O)cc(O)c1C(=O)N1CCCC1)c1ccccc1` (single isomer, unassigned) [Example 13], the IC50 in experiment [1] and in experiment [2] was over 10 µM in each case.

In the case of `CC(Oc1cc(O)cc(O)c1C(=O)N1CCCC1)c1ccccc1` (single isomer, unassigned) [Example 14], the IC50 in experiment [1] and in experiment [2] was over 10 µM in each case.

With `O=C(c1c(O)cc(O)cc1OCc1ncccn1)N1CCCC1` [Example 1, [2,4-dihydroxy-6-(pyrimidin-2-ylmethoxy)phenyl]-pyrrolidin-1-yl-methanone], the IC50 in experiment [1] and in experiment [2] was over 10 µM throughout.

In the case of `O=C(c1c(O)cc(O)cc1OC1CCCC1)N1CCCC1` [Example 2, (2-(cyclopentyloxy)-4,6-dihydroxyphenyl)(pyrrolidin-1-yl)methanone], the IC50 in experiment [1] and in experiment [2] was over 10 µM throughout.

On to `O=C(c1c(O)cc(O)cc1OCc1ccccc1)N1CCCC1` [Example 3, (2-benzyloxy-4,6-dihydroxy-phenyl)-pyrrolidin-1-yl-methanone], for which the IC50 in experiment [1] and in experiment [2] was over 10 µM in each case.

Turning to `O=C(c1c(O)cc(O)cc1OCc1ccccc1)N1Cc2ccccc2C1` [Example 4, (2-benzyloxy-4,6-dihydroxy-phenyl)-isoindolin-2-yl-methanone], the IC50 in experiment [1] and in experiment [2] was under 1 µM throughout.

Take `O=C(c1c(O)cc(O)cc1OCc1ccccc1)N1CCCCC1` [Example 5, (2-benzyloxy-4,6-dihydroxy-phenyl)-(1-piperidyl)methanone]: the IC50 in experiment [1] and in experiment [2] was over 10 µM throughout.

Consider `O=C(c1c(O)cc(O)cc1OCc1ccccc1)N1CC[C@H](O)C1` [Example 6, (2-benzyloxy-4,6-dihydroxy-phenyl)-[(3S)-3-hydroxypyrrolidin-1-yl]methanone], for which the IC50 in experiment [1] and in experiment [2] was over 10 µM each time.

With `O=C(c1c(O)cc(O)cc1OCc1ccccc1)N1CC[C@@H](O)C1` [Example 7, (2-benzyloxy-4,6-dihydroxy-phenyl)-[(3R)-3-hydroxypyrrolidin-1-yl]methanone], the IC50 in experiment [1] and in experiment [2] was over 10 µM each time.

Regarding `O=C(c1c(O)cc(O)cc1OCc1ccccc1)N1CCC[C@@H](O)C1` [Example 8, (2-benzyloxy-4,6-dihydroxy-phenyl)-[(3R)-3-hydroxy-1-piperidyl]methanone], the concentration for half-maximal inhibition (IC50) in experiment [1] is over 10 µM.

`O=C(c1c(O)cc(O)cc1OCc1ccccc1)N1CCC[C@H](O)C1` [Example 9, (2-benzyloxy-4,6-dihydroxy-phenyl)-[(3S)-3-hydroxy-1-piperidyl]methanone]: in experiment [1], the IC50 was over 10 µM.

`Cc1c(O)cc(O)c(C(=O)N2CCCC2)c1OCc1ccccc1` [Example 10, (2-benzyloxy-4,6-dihydroxy-3-methyl-phenyl)-pyrrolidin-1-yl-methanone]: the results for the IC50 in experiment [1] and in experiment [2] were over 10 µM and 1 to 10 µM, respectively.

Regarding `CCc1c(O)cc(O)c(C(=O)N2CCCC2)c1OCc1ccccc1` [Example 11, (2-benzyloxy-3-ethyl-4,6-dihydroxy-phenyl)-pyrrolidin-1-yl-methanone], the IC50 in experiment [1] and in experiment [2] was over 10 µM throughout.

On to `O=C(c1c(O)cc(O)cc1OCc1ccccn1)N1CCCC1` [Example 12, [2,4-dihydroxy-6-(2-pyridylmethoxy)phenyl]-pyrrolidin-1-yl-methanone], for which the IC50 in experiment [1] and in experiment [2] was over 10 µM each time.

Turning to `O=C(c1c(O)cc(O)cc1OCc1ccc(F)cc1)N1CCCC1` [Example 15, [2-[(4-fluorophenyl)methoxy]-4,6-dihydroxy-phenyl]-pyrrolidin-1-yl-methanone], the concentration for half-maximal inhibition (IC50) in experiment [1] and in experiment [2] was over 10 µM each time.

On to `COc1ccc(COc2cc(O)cc(O)c2C(=O)N2CCCC2)cc1` [Example 16, [2,4-dihydroxy-6-[(4-methoxyphenyl)methoxy]phenyl]-pyrrolidin-1-yl-methanone], for which the 50% inhibitory concentration (IC50) in experiment [1] and in experiment [2] was over 10 µM in each case.

Regarding `Cc1cccc(COc2cc(O)cc(O)c2C(=O)N2CCCC2)c1` [Example 17, [2,4-dihydroxy-6-(m-tolylmethoxy)phenyl]-pyrrolidin-1-yl-methanone], the half-maximal inhibitory concentration (IC50) in experiment [1] is over 10 µM.

Consider `O=C(c1c(O)cc(O)cc1OCc1ccccc1)N1Cc2cccnc2C1` [Example 18, (2-benzyloxy-4,6-dihydroxy-phenyl)-(5,7-dihydropyrrolo[3,4-b]pyridin-6-yl)methanone], for which the IC50 in experiment [1] and in experiment [2] was 1 to 10 µM each time.

Consider `COc1cccc2c1CN(C(=O)c1c(O)cc(O)cc1OCc1ccccc1)C2` [Example 19, (2-benzyloxy-4,6-dihydroxy-phenyl)-(4-methoxyisoindolin-2-yl)methanone], for which the IC50 in experiment [1] and in experiment [2] was under 1 µM throughout.

Regarding `O=C(c1c(O)cc(O)cc1OCc1ccncn1)N1CCCC1` [Example 20, [2,4-dihydroxy-6-(pyrimidin-4-ylmethoxy)phenyl]-pyrrolidin-1-yl-methanone], the IC50 in experiment [1] and in experiment [2] was over 10 µM throughout.

Turning to `O=C(c1c(O)cc(O)cc1OCc1cc[nH]n1)N1CCCC1` [Example 21, (2-((1H-pyrazol-3-yl)methoxy)-4,6-dihydroxyphenyl)(pyrrolidin-1-yl)methanone], the IC50 in experiment [1] and in experiment [2] was over 10 µM in each case.

On to `O=C(c1c(O)cc(O)cc1OCc1c[nH]nn1)N1CCCC1` [Example 22, [2,4-dihydroxy-6-(1H-triazol-4-ylmethoxy)phenyl]-pyrrolidin-1-yl-methanone], for which the IC50 in experiment [1] and in experiment [2] was over 10 µM throughout.

Turning to `O=C(c1c(O)cc(O)cc1OCc1ccccc1)N1Cc2ccc(Br)cc2C1` [Example 23, (2-benzyloxy-4,6-dihydroxy-phenyl)-(5-bromoisoindolin-2-yl)methanone], the IC50 in experiment [1] and in experiment [2] was under 1 µM in each case.

Consider `COC(=O)c1ccc2c(c1)CN(C(=O)c1c(O)cc(O)cc1OCc1ccccc1)C2` [Example 24, methyl 2-(2-benzyloxy-4,6-dihydroxy-benzoyl)isoindoline-5-carboxylate], for which the IC50 in experiment [1] and in experiment [2] was under 1 µM each time.

Consider `COc1ccc2c(c1)CN(C(=O)c1c(O)cc(O)cc1OCc1ccccc1)C2` [Example 25, (2-benzyloxy-4,6-dihydroxy-phenyl)-(5-methoxyisoindolin-2-yl)methanone], for which the IC50 in experiment [1] and in experiment [2] was under 1 µM in each case.

For the compound `Cc1c(O)cc(O)c(C(=O)N2CCc3ccccc3C2)c1OCc1ccccn1` [Example 45, 3,4-dihydro-1H-isoquinolin-2-yl-[4,6-dihydroxy-3-methyl-2-(2-pyridylmethoxy)phenyl]methanone], in experiment [1], the IC50 was over 10 µM.

Take `COc1ccc2c(c1)CN(C(=O)c1c(O)cc(O)c(C)c1OCc1ccccn1)CC2` [Example 46, [4,6-dihydroxy-3-methyl-2-(2-pyridylmethoxy)phenyl]-(7-methoxy-3,4-dihydro-1H-isoquinolin-2-yl)methanone]: the IC50 in experiment [1] is over 10 µM.

Regarding `Cc1c(O)cc(O)c(C(=O)N2CCOc3ccccc32)c1OCc1ccccc1` [Example 67, (2-(Benzyloxy)-4,6-dihydroxy-3-methylphenyl)(2,3-dihydro-4H-benzo[b][1,4]oxazin-4-yl)methanone], in experiment [1], the IC50 is over 10 µM.
